In patent US8772321B2, “Heteroannelated anthraquinone derivatives for inhibiting cancers” (National Defense Medical Center, priority 2008, dated 2014):

Columns and labels:
Assay type in all cases: cell-based, human
A549/ATCC = assay: NCI 60-cell one dose screen; settings: A549/ATCC (Non-small cell lung cancer); 10^−5M; untreated control 100
Procedure: (§1) NSC745885 was studied as a prototype for anti-proliferative activity against human cancer cell lines in NCI Drug Screen Program (Table 1, below). NSC745885 was evaluated in the full panel of human tumor cell lines derived from nine cancer cell types (leukemia, non-small cell lung cancer, colon cancer, CNS cancer, prostate cancer, melanoma, ovarian cancer, renal cancer and breast cancer). Each subpanel uses several cell lines and dose-response curves were drawn against the decadic logarithm (log 10) of the corresponding drug concentrations for each cell line by the subpanel group. They were also evaluated in the 60 cell line panel and anticancer assay was performed in accordance with the protocol of developmental therapeutics program (one dose mean graph). Results for each compound were reported as the proliferation percentage of the treated cells with that of the untreated control cells being 100. For each of these parameters the averaged values of mean graph midpoint (MG_MID) were calculated.

CAK1-1 = assay: NCI 60-cell one dose screen; settings: CAK1-1 (Renal cancer); 10^−5M
Procedure: as §1

CCRF-CEM = assay: NCI 60-cell one dose screen; settings: CCRF-CEM (Leukemia); 10^−5M
Procedure: as §1

COLO 205 = assay: NCI 60-cell one dose screen; settings: COLO 205 (Colon cancer); 10^−5M
Procedure: as §1

DU-145 = assay: NCI 60-cell one dose screen; settings: DU-145 (Prostate cancer); 10^−5M
Procedure: as §1

EKVX = assay: NCI 60-cell one dose screen; settings: EKVX (Non-small cell lung cancer); 10^−5M
Procedure: as §1

HCC-2998 = assay: NCI 60-cell one dose screen; settings: HCC-2998 (Colon cancer); 10^−5M
Procedure: as §1

HCT-15 = assay: NCI 60-cell one dose screen; settings: HCT-15 (Colon cancer); 10^−5M
Procedure: as §1

K-562 = assay: NCI 60-cell one dose screen; settings: K-562 (Leukemia); 10^−5M
Procedure: as §1

LOX IMVI = assay: NCI 60-cell one dose screen; settings: LOX IMVI (Melanoma); 10^−5M
Procedure: as §1

M14 = assay: NCI 60-cell one dose screen; settings: M14 (Melanoma); 10^−5M
Procedure: as §1

MALME-3M = assay: NCI 60-cell one dose screen; settings: MALME-3M (Melanoma); 10^−5M
Procedure: as §1

MCF7 = assay: NCI 60-cell one dose screen; settings: MCF7 (Breast cancer); 10^−5M
Procedure: as §1

MDA-MB-231/ATCC = assay: NCI 60-cell one dose screen; settings: MDA-MB-231/ATCC (Breast cancer); 10^−5M
Procedure: as §1

MDA-MB-435 = assay: NCI 60-cell one dose screen; settings: MDA-MB-435 (Breast cancer); 10^−5M
Procedure: as §1

MDA-MB468 = assay: NCI 60-cell one dose screen; settings: MDA-MB468 (Breast cancer); 10^−5M
Procedure: as §1

OVCAR-3 = assay: NCI 60-cell one dose screen; settings: OVCAR-3 (Ovarian cancer); 10^−5M
Procedure: as §1

OVCAR-4 = assay: NCI 60-cell one dose screen; settings: OVCAR-4 (Ovarian cancer); 10^−5M
Procedure: as §1

OVCAR-5 = assay: NCI 60-cell one dose screen; settings: OVCAR-5 (Ovarian cancer); 10^−5M
Procedure: as §1

OVCAR-8 = assay: NCI 60-cell one dose screen; settings: OVCAR-8 (Ovarian cancer); 10^−5M
Procedure: as §1

RXF393 = assay: NCI 60-cell one dose screen; settings: RXF393 (Renal cancer); 10^−5M
Procedure: as §1

SF-268 = assay: NCI 60-cell one dose screen; settings: SF-268 (CNS cancer); 10^−5M
Procedure: as §1

SF-295 = assay: NCI 60-cell one dose screen; settings: SF-295 (CNS cancer); 10^−5M
Procedure: as §1

SF-539 = assay: NCI 60-cell one dose screen; settings: SF-539 (CNS cancer); 10^−5M
Procedure: as §1

SK-MEL-28 = assay: NCI 60-cell one dose screen; settings: SK-MEL-28 (Melanoma); 10^−5M
Procedure: as §1

SK-MEL-5 = assay: NCI 60-cell one dose screen; settings: SK-MEL-5 (Melanoma); 10^−5M
Procedure: as §1

SN12C = assay: NCI 60-cell one dose screen; settings: SN12C (Renal cancer); 10^−5M
Procedure: as §1

SNB-19 = assay: NCI 60-cell one dose screen; settings: SNB-19 (CNS cancer); 10^−5M
Procedure: as §1

SNB-75 = assay: NCI 60-cell one dose screen; settings: SNB-75 (CNS cancer); 10^−5M
Procedure: as §1

SR = assay: NCI 60-cell one dose screen; settings: SR (Leukemia); 10^−5M
Procedure: as §1

SW-620 = assay: NCI 60-cell one dose screen; settings: SW-620 (Colon cancer); 10^−5M
Procedure: as §1

T-47D = assay: NCI 60-cell one dose screen; settings: T-47D (Breast cancer); 10^−5M
Procedure: as §1

UACC-257 = assay: NCI 60-cell one dose screen; settings: UACC-257 (Melanoma); 10^−5M
Procedure: as §1

UACC-62 = assay: NCI 60-cell one dose screen; settings: UACC-62 (Melanoma); 10^−5M
Procedure: as §1

UO-31 = assay: NCI 60-cell one dose screen; settings: UO-31 (Renal cancer); 10^−5M
Procedure: as §1

60 cancer cell lines = assay: NCI 60-cell one dose screen, whole panel; settings: 10^−5M
Procedure: as §1

O=C1c2ccccc2C(=O)c2c1ccc1nsnc21 [NSC745885, anthra[2,1-c][1,2,5]thiadiazole-6,11-dione]
proliferation percentage (A549/ATCC): 104.18% | proliferation percentage (CAK1-1): 1.97% | proliferation percentage (CCRF-CEM): −30.81% | proliferation percentage (COLO 205): 111.54% | proliferation percentage (DU-145): 40.76% | proliferation percentage (EKVX): 103.18% | proliferation percentage (HCC-2998): −0.74% | proliferation percentage (HCT-15): 1.48% | proliferation percentage (K-562): 49.61% | proliferation percentage (LOX IMVI): −50.63% | proliferation percentage (M14): 74.54% | proliferation percentage (MALME-3M): −71.54% | proliferation percentage (MCF7): −50.74% | proliferation percentage (MDA-MB-231/ATCC): −17.33% | proliferation percentage (MDA-MB-435): −87.88% | proliferation percentage (MDA-MB468): −73.17% | proliferation percentage (OVCAR-3): −15.47% | proliferation percentage (OVCAR-4): −94.43% | proliferation percentage (OVCAR-5): −20.07% | proliferation percentage (OVCAR-8): −10.07% | proliferation percentage (RXF393): 20.11% | proliferation percentage (SF-268): 16.29% | proliferation percentage (SF-295): 126.17% | proliferation percentage (SF-539): −47.11% | proliferation percentage (SK-MEL-28): 15.47% | proliferation percentage (SK-MEL-5): 8.52% | proliferation percentage (SN12C): −73.27% | proliferation percentage (SNB-19): 78.98% | proliferation percentage (SNB-75): 79.03% | proliferation percentage (SR): 4.96% | proliferation percentage (SW-620): 7.30% | proliferation percentage (T-47D): −45.52% | proliferation percentage (UACC-257): −83.07% | proliferation percentage (UACC-62): −82.32% | proliferation percentage (UO-31): −79.30% | proliferation percentage, Delta (60 cancer cell lines; delta of the one dose mean graph): 102.68% | proliferation percentage, Mean (60 cancer cell lines; mean over the cell lines): 2.68% | proliferation percentage, Range (60 cancer cell lines; range over the cell lines): 230.09%
